The text below walks through data of ChEMBL document CHEMBL1143450, “Potential metabolites of a condensed 2,3-benzodiazepine derivative” (Bioorg Med Chem Lett, 2005).

In assay [1] the test system is Mus musculus. The assay can be described thus: Effective i.p. dose tested for muscle relaxant activity using inclined screen test in mouse (highest test concentration). The conditions noted are these: ip.
Assay [2] is filed under the species Gallus gallus. The assay can be described thus: Evaluated for inhibition of AMPA (5 uM) evoked spreading depression in isolated retina prepared from young chicken. The assay is classed as functional.
In assay [3] the test system is Mus musculus. In words: Effective p.o. dose tested for anticonvulsant activity using maximal electroshock seizure model in mouse. As to conditions: po. On the technique in general: In the maximal electroshock model the usual endpoint is tonic extension of the hind limbs.
The subject of assay [4] is Mus musculus. The assay can be described thus: Effective p.o. dose tested for anticonvulsant activity using maximal electroshock seizure model in mouse (highest test concentration). The conditions noted are these: po.
The species entered for assay [5] is Gallus gallus. In words: Evaluated for inhibition of AMPA (5 uM) evoked spreading depression in isolated retina prepared from young chicken at 20 uM. The format is functional.
Assay [6] concerns Mus musculus. The assay can be described thus: Effective i.p. dose tested for muscle relaxant activity using inclined screen test in mouse (value range= 29.4-45.2 mg/kg). As to conditions: ip.
Assay [7] relates to Mus musculus. In words: Effective p.o. dose tested for anticonvulsant activity using maximal electroshock seizure model in mouse (value range= 17.9-32.1 mg/kg). As to conditions: po.
Assay [8] has as its system Mus musculus. The assay can be described thus: Effective p.o. dose tested for anticonvulsant activity using maximal electroshock seizure model in mouse (SMA). The conditions noted are these: po.
In assay [9] the test system is Mus musculus. The assay can be described thus: Effective p.o. dose tested for anticonvulsant activity using maximal electroshock seizure model in mouse (highest test concentration). As to conditions: po. The source holds these as a separate data set.
Assay [10] concerns Mus musculus. In words: Effective i.p. dose tested for muscle relaxant activity using inclined screen test in mouse (value range= 11.2-16.0 mg/kg). As to conditions: ip.
Assay [11] deals with Mus musculus. In words: Effective p.o. dose tested for anticonvulsant activity using maximal electroshock seizure model in mouse (high test concentration). The conditions noted are these: po.
Assay [12] deals with Mus musculus. In words: Effective i.p. dose tested for muscle relaxant activity using inclined screen test in mouse (value range=100-200 mg/kg). The conditions noted are these: ip.
The test system of assay [13] is Mus musculus. In words: Effective p.o. dose tested for anticonvulsant activity using maximal electroshock seizure model in mouse (value range=25-50 mg/kg). The conditions noted are these: po.

The ED50 is the dose at which the effect has come halfway, by size or by number of responders. The IC50 is the concentration that gives 50% inhibition. A word on the Inhibition: it is how much of the control response was suppressed.

Consider `CC(=O)Nc1ccc(C2=Nn3cc(C)nc3Cc3ccc(Cl)cc32)cc1`, for which the ED50 is more than 200 mg/kg in assay [1] and 56 mg/kg in assay [3]. The compound further returned an IC50 in assay [2] of more than 20 µM.
Regarding `CC(=O)Nc1ccc(C2=Nn3cc(C(=O)O)nc3Cc3ccc(Cl)cc32)cc1`, the results for the ED50 in assay [1] and in [4] were more than 200 mg/kg and more than 100 mg/kg, respectively. Also, the Inhibition in [5] came out at 33%.
`Cc1cn2c(n1)Cc1ccc(Cl)cc1C(c1ccc(N)cc1)=N2`: the IC50 in assay [2] came out at 7.3 µM. Moreover, the ED50 in assay [6] came out at 36.5 mg/kg; in [7], 24 mg/kg.
For `CC(=O)Nc1ccc(C2=Nn3cc(CO)nc3Cc3ccc(Cl)cc32)cc1`, the ED50 in [8] is more than 100 mg/kg.
In the case of `Nc1ccc(C2=Nn3cc(C(=O)O)nc3Cc3ccc(Cl)cc32)cc1`, the results for the ED50 in [1] and in assay [9] were more than 200 mg/kg and more than 100 mg/kg, respectively. Moreover, in [5], the Inhibition was found to be 55%.
Take `CC(=O)N1N=C(c2ccc(N)cc2)c2cc3c(cc2C[C@H]1C)OCO3` [TALAMPANEL]: the ED50 in assay [10] came out at 13.4 mg/kg.
For `CCOC(=O)c1cn2c(n1)Cc1ccc(Cl)cc1C(c1ccc(N)cc1)=N2`, the ED50 in assay [1] is more than 200 mg/kg; in assay [11] it was more than 100 mg/kg. This compound also yielded an IC50 in assay [2] of 20 µM.
`Nc1ccc(C2=Nn3cc(CO)nc3Cc3ccc(Cl)cc32)cc1`: the results for the ED50 in [12] and in assay [13] were 200 mg/kg and 50 mg/kg, respectively. Also, the IC50 in assay [2] stood at 5 µM.
